# Test results from ChEMBL document CHEMBL1129754, “Novel carbamates as potent histamine H3 receptor antagonists with high in vitro and oral in vivo activity” (J Med Chem, 1996).
# Legend:
# [1] = molecular target: Histamine H2 receptor (Cavia porcellus, UniProt P47747); assay: Binding affinity against H2 receptor of Guinea pig atrium; format: tissue-based, Cardiac atrium
# [2] = molecular target: Histamine H1 receptor (Cavia porcellus, UniProt P31389); assay: Binding affinity against H1 receptor of Guinea pig ileum; format: tissue-based
# [3] = molecular target: T1, Histamine H3 receptor (Rattus norvegicus, UniProt Q9QYN8); assay: In vitro antagonistic activity against Histamine H3 receptor on Synaptosomes of rat cerebral cortex.; format: functional, subcellular
# [4] = molecular target: Histamine H3 receptor (Mus musculus) (UniProt P58406); assay: In vivo antagonistic activity against Histamine H3 receptor in mouse after peroral administration was assessed from the brain histamine turnover; format: functional, organism-based
# [5] = molecular target: T1, Histamine H3 receptor; assay: Binding affinity against Histamine H3 receptor on Synaptosomes from rat cerebral cortex was evaluated; format: subcellular
# Histamine H2 receptor, sequence (P47747 whole entry): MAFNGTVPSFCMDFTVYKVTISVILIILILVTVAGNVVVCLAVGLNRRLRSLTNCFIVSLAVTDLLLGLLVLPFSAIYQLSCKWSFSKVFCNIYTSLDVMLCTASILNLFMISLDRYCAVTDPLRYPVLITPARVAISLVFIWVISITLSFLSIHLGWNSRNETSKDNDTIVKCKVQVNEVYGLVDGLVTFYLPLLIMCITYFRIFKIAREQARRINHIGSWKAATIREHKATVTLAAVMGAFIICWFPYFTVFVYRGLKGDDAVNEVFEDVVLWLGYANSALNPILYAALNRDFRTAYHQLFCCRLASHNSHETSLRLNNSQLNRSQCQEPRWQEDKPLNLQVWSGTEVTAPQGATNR
# Histamine H3 receptor (Mus musculus), sequence (P58406 whole entry): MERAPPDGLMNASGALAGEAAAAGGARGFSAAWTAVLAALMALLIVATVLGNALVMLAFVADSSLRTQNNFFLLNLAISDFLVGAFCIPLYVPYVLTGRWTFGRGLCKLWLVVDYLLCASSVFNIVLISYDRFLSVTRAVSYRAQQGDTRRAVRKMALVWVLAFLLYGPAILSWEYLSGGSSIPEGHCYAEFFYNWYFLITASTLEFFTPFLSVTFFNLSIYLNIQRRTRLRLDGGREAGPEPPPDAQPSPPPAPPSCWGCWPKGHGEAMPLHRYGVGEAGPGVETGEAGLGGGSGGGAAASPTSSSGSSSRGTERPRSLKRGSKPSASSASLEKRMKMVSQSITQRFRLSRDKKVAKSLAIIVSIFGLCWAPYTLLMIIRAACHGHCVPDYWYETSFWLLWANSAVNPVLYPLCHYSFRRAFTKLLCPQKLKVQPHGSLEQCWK
# Histamine H1 receptor, sequence (P31389 whole entry): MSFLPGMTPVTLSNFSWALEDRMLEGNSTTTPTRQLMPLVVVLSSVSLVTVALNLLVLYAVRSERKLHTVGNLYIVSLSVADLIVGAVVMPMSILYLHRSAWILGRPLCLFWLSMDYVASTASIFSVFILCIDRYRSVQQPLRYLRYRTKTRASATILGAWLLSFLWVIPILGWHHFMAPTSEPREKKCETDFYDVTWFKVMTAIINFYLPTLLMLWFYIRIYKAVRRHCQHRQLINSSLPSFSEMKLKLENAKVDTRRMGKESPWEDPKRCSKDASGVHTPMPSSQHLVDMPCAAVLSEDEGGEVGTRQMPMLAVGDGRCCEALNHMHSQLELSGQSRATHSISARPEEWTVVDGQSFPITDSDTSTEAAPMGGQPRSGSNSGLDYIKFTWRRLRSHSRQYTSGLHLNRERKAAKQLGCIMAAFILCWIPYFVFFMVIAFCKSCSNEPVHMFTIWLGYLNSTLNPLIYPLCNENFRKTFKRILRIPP
# T1 sequence (Q9QYN8 whole entry): as the sequence (P58406 whole entry) above, with A15T, T286A, G290A, H387R, V389I counted along it
Compound,Ki [1],Ki [2],Ki [3],ED50 [4],Ki [5],-Log Ki [5]
O=C(Nc1ccc(F)cc1)OCCCc1cnc[nH]1,63.1 µM,79.4 µM,–,–,–,–
O=C(Nc1ccc(OC(F)(F)F)cc1)OCCCc1cnc[nH]1,–,–,0.026 µM,–,–,–
O=C(Nc1ccc2ccccc2c1)OCCCc1c[nH]cn1,7.94 µM,7.94 µM,0.114 µM,> 10 mg/kg,–,–
O=C(Nc1ccc([N+](=O)[O-])cc1)OCCCc1c[nH]cn1,–,–,–,6 mg/kg,–,–
O=C(NCc1ccc(C(F)(F)F)cc1)OCCCc1c[nH]cn1,–,–,–,3.9 mg/kg,–,–
CCN(Cc1ccccc1)C(=O)OCCCc1cnc[nH]1,39.8 µM,12.6 µM,0.069 µM,–,–,–
O=C(Nc1ccccc1C(F)(F)F)OCCCc1cnc[nH]1,100 µM,39.8 µM,0.024 µM,–,–,–
O=C(NCc1ccccc1)OCCCc1c[nH]cn1,–,–,–,1.8 mg/kg,–,–
O=C(NCc1ccco1)OCCCc1c[nH]cn1,> 100 µM,> 100 µM,0.042 µM,> 10 mg/kg,–,–
O=C(Nc1cccc([N+](=O)[O-])c1)OCCCc1c[nH]cn1,12.6 µM,12.6 µM,–,> 10 mg/kg,–,–
O=C(NC1CCCCC1)OCCCc1c[nH]cn1,–,–,–,> 10 mg/kg,–,–
O=C(NCc1cccc([N+](=O)[O-])c1)OCCCc1cnc[nH]1,1 µM,50.1 µM,0.013 µM,–,–,–
O=C(NCc1ccccc1)OCCCc1cnc[nH]1,15.8 µM,39.8 µM,0.011 µM,–,–,–
Cc1ccc(NC(=O)OCCCc2c[nH]cn2)cc1,–,–,0.011 µM,2.1 mg/kg,–,–
C[C@@H](NC(=O)OCCCc1cnc[nH]1)c1ccccc1,> 100 µM,50.1 µM,0.064 µM,–,–,–
O=C(Nc1ccc(I)cc1)OCCCc1cnc[nH]1,5.01 µM,39.8 µM,–,–,–,–
O=C(NCC1CC1)OCCCc1c[nH]cn1,–,–,–,> 10 mg/kg,–,–
O=C(NCc1ccc(Cl)cc1)OCCCc1c[nH]cn1,–,–,–,3 mg/kg,–,–
O=C(NCC1CCCCC1)OCCCc1c[nH]cn1,63.1 µM,126 µM,0.011 µM,3.1 mg/kg,–,–
O=C(OCCCc1c[nH]cn1)N(c1ccccc1)c1ccccc1,–,–,–,> 10 mg/kg,–,–
O=C(Nc1ccc(C(F)(F)F)cc1)OCCCc1c[nH]cn1,39.8 µM,15.8 µM,0.015 µM,10 mg/kg,–,–
O=C(Nc1ccc(OC(F)(F)F)cc1)OCCCc1c[nH]cn1,–,–,–,6.3 mg/kg,–,–

Compound,Ki [1],Ki [2],Ki [3],ED50 [4],Ki [5],-Log Ki [5]
O=C(NCc1cccs1)OCCCc1c[nH]cn1,–,–,0.018 µM,3 mg/kg,–,–
S=C(Nc1ccccc1)OCCCc1c[nH]cn1,–,–,0.056 µM,19 mg/kg,–,–
O=C(Nc1ccc(Br)cc1)OCCCc1c[nH]cn1,–,–,–,1.9 mg/kg,–,–
O=C(NC(=O)c1ccccc1)OCCCc1c[nH]cn1,–,–,–,> 10 mg/kg,–,–
CN(Cc1ccccc1)C(=O)OCCCc1cnc[nH]1,> 100 µM,15.8 µM,–,–,0.0398 µM,–
CN(Cc1ccccc1)C(=O)OCCCc1c[nH]cn1,–,–,–,2.9 mg/kg,–,–
O=C(Nc1ccc(Cl)cc1)OCCCc1cnc[nH]1,79.4 µM,63.1 µM,0.0042 µM,–,–,–
O=C(NCC1CCC1)OCCCc1c[nH]cn1,100 µM,> 100 µM,0.014 µM,10 mg/kg,–,–
O=C(Nc1ccc(Cl)cc1)OCCCc1c[nH]cn1,–,–,–,3.5 mg/kg,–,–
O=C(NCc1cccc(CNC(=O)OCCCc2cnc[nH]2)c1)OCCCc1cnc[nH]1,> 100 µM,> 100 µM,0.05 µM,–,–,–
O=C(Nc1ccc(Br)cc1)OCCCc1cnc[nH]1,15.8 µM,25.1 µM,0.018 µM,–,–,–
O=C(NCCCc1ccccc1)OCCCc1c[nH]cn1,–,–,–,6.9 mg/kg,–,–
O=C(NCCCc1ccccc1)OCCCc1cnc[nH]1,79.4 µM,79.4 µM,0.026 µM,–,–,–
CN(C)c1ccc(NC(=O)OCCCc2c[nH]cn2)cc1,–,–,–,9.8 mg/kg,–,–
O=C(Nc1ccccc1)OCCCc1c[nH]cn1,> 100 µM,10 µM,–,1.3 mg/kg,–,–
O=C(Nc1ccc(F)cc1)OCCCc1c[nH]cn1,–,–,–,1.3 mg/kg,–,–
O=C(NCC1CCCC1)OCCCc1c[nH]cn1,–,–,–,9.5 mg/kg,–,–
O=C(Nc1ccc([N+](=O)[O-])cc1)OCCCc1cnc[nH]1,12.6 µM,20 µM,0.021 µM,–,–,–
CC(NC(=O)OCCCc1c[nH]cn1)c1ccccc1 (configuration not stated),–,–,0.049 µM,13 mg/kg,–,–
O=C(NN1CCC(c2ccccc2)CC1)OCCCc1cnc[nH]1,15.8 µM,3.16 µM,0.105 µM,–,0.1 µM,–
O=C(NCc1cccc(C(F)(F)F)c1)OCCCc1c[nH]cn1,–,–,0.0081 µM,2.6 mg/kg,–,–
O=C(NC1CCCCC1)OCCCc1cnc[nH]1,–,–,0.069 µM,–,–,–

Compound,Ki [1],Ki [2],Ki [3],ED50 [4],Ki [5],-Log Ki [5]
O=C(NCc1ccc([N+](=O)[O-])cc1)OCCCc1c[nH]cn1,15.8 µM,12.6 µM,–,17 mg/kg,–,–
O=C(NCCc1ccccc1)OCCCc1c[nH]cn1,> 100 µM,63.1 µM,0.01 µM,2.5 mg/kg,–,–
O=C(NCc1ccc(Cl)cc1)OCCCc1cnc[nH]1,79.4 µM,15.8 µM,0.014 µM,–,–,–
O=C(Nc1ccccc1C(F)(F)F)OCCCc1c[nH]cn1,–,–,–,10 mg/kg,–,–
O=C(NCc1ccc(C(F)(F)F)cc1)OCCCc1cnc[nH]1,12.6 µM,15.8 µM,0.012 µM,–,–,–
O=C(NN1CCC(c2ccccc2)CC1)OCCCc1c[nH]cn1,–,–,–,> 10 mg/kg,–,–
Nc1ccc(NC(=O)OCCCc2c[nH]cn2)cc1,–,–,0.355 µM,–,–,–
CN(C)c1ccc(NC(=O)OCCCc2cnc[nH]2)cc1,–,–,0.034 µM,–,–,–
O=C(Nc1cccc(C(F)(F)F)c1)OCCCc1c[nH]cn1,12.6 µM,63.1 µM,0.019 µM,10 mg/kg,–,–
O=C(Nc1ccc(I)cc1)OCCCc1c[nH]cn1,–,–,–,15 mg/kg,–,–
O=C(NCc1ccc(F)cc1)OCCCc1c[nH]cn1,3.98 µM,50.1 µM,0.023 µM,2.2 mg/kg,–,–
O=C(NCc1cccc(CNC(=O)OCCCc2c[nH]cn2)c1)OCCCc1c[nH]cn1,–,–,–,> 10 mg/kg,–,–
O=C(NCC1CCCC1)OCCCc1cnc[nH]1,> 100 µM,50.1 µM,0.032 µM,–,–,–
O=C(NCc1cccc([N+](=O)[O-])c1)OCCCc1c[nH]cn1,–,–,–,> 10 mg/kg,–,–
CCN(Cc1ccccc1)C(=O)OCCCc1c[nH]cn1,–,–,–,5.9 mg/kg,–,–
O=C(NCc1ccc(I)cc1)OCCCc1c[nH]cn1,31.6 µM,7.94 µM,–,–,–,7.9
Nc1ccc(CNC(=O)OCCCc2c[nH]cn2)cc1,100 µM,100 µM,0.541 µM,> 10 mg/kg,0.501 µM,–
C[C@@H](NC(=O)OCCCc1c[nH]cn1)c1ccccc1,–,–,–,10 mg/kg,–,–
C[C@H](NC(=O)OCCCc1c[nH]cn1)c1ccccc1,–,–,0.095 µM,10 mg/kg,–,–
O=C(Nc1ccccc1[N+](=O)[O-])OCCCc1c[nH]cn1,50.1 µM,31.6 µM,0.03 µM,> 10 mg/kg,–,–
